Data taken from US20150017673A1, “COMPOSITIONS AND METHODS FOR DRUG-SENSITIZATION OR INHIBITION OF A CANCER CELL” (priority 2012, published 2015).
Read-outs that look alike come from different tables or passages of the source.

What was measured:
lymphoma cell line G3 = assay: Cell growth assay (resazurin fluorescence) on CHOP-resistant G3 NHL cells; format: cell-based, human; details: for IC50: Homo sapiens
How it was run: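 CHOP-resistant G3 NHL cells grown five days in RPMI medium were counted by haemocytometer and set to 625,000 cells/ml. They were then added to plates holding test drug, first dissolved in 100% DMSO and diluted in 0.1M PBS to 0.5% final DMSO. Plates incubated 96 hours at 37° C. and 5% CO2. Resazurin at 20 μg/ml was added for a further 24 hours, and plates were read on a BMG Polarstar at 573-605.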

[1] = test system: CHOP-sensitive NHL cell line CRL2631; assay: Cell growth assay (resazurin) on CHOP-sensitive CRL2631 NHL cells; format: cell-based, human
[2] = test system: multi-drug-resistant breast cancer cell line MDA-MB-231; assay: Cell growth assay on MDA-MB-231 cells; format: cell-based; details: MDA-MB-231, breast carcinoma
Procedure: Compositions were tested on CHOP-resistant G3 NHL cells that had been cultivated in RPMI medium for five days. Prior to assay, the cells were counted by haemocytometer and cell concentration standardized to 625,000 cells/ml. Test drugs were solubilized in 100% DMSO and then diluted to final assay concentration with 0.1M phosphate buffered saline (PBS) and a final DMSO concentration of 0.5%. Cells were added to assay plates containing the test drugs (rifabutin+148 ng/ml, 74 ng/ml, 37 ng/ml, or 0 ng/ml doxorubicin) and allowed to incubate for 96 hours at 37° C. and 5% CO2. The metabolic dye rezasurin was added to the wells of the assay plate at a final concentration of 20 μg/ml and the plates were incubated for an additional 24 hours. The plates were then read in a BMG Polarstar plate reader at wavelength (573-605) and the data plotted as OD versus increasing dilutions (i.e. decreasing total amounts) of rifabutin derivative concentration.
In these experiments, the following cell lines were used: CHOP-resistant NHL cell line G3, CHOP-sensitive NHL cell line CRL2631, the multi-drug resistant sarcoma cell line MES-SA-Dx5; multi-drug-resistant breast cancer cell line MDA-MB-231, multi-drug resistant ovarian carcinoma cell line SK-OV3, multi-drug resistant ovarian cancer cell line NCI/ADR-RES, drug-sensitive ovarian cancer cell line OVCAR-5, and multi-drug resistant ovarian cancer cell line OVCAR-3.
Additional cell lines used include: ovarian cancer OVCAR-8, T lymphoblastoid leukemia MOLT-4, dexamethasone-resistant multiple myeloma MM.1R, myeloid leukemia cells HL-60, osteosarcoma cells U-2 OS, and myeloma RPMI 8226.

[3] = test system: multi-drug resistant ovarian carcinoma cell line SK-OV3; assay: Cell growth assay on SK-OV3 cells; format: cell-based, human; details: SK-OV3, ovarian carcinoma
[4] = test system: G3 CHOP-resistant NHL cells
Procedure: In a first efficacy study, 6-8 week old female SCID mice (7 mice per treatment arm) were injected subcutaneously on both flanks with 1×10^7 G3 CHOP-resistant NHL cells. Once palpable tumors (about […] size) appeared, therapies (CHOP or CHOP+rifabutin) were started. CHOP was administered at the maximum tolerated dose (cyclophosphamide, 40 mg/kg i.v.; doxorubicin, 3.3 mg/kg i.v.; vincristine, 0.5 mg/kg i.v.; and prednisone, 0.2 mg/kg orally daily for 5 d) weekly for 3 weeks. Rifabutin in an amount of 100 mg/kg was administered on the day of each CHOP treatment and 24-hours later by gavage. Mouse body weight and tumor size were monitored every two days and tumor size measured by caliper. The tumor volume formula (L*W*W)/2 was used to calculate tumor mass.
A second efficacy study was conducted where mice were treated before the appearance of palpable tumors. In that experiment, one week after transplantation of CHOP-resistant G3 cells, one group (7 mice) was treated with CHOP-only and a second group (8 mice) was treated with CHOP+rifabutin.
A third study was conducted in which mice injected with CHOP-resistant G3 cells received reduced dosages of CHOP in combination with 33 mg/kg rifabutin. CHOP+rifabutin was administered weekly beginning one week post-inoculation. Control mice were given no CHOP or rifabutin.
SCID mice were injected with CHOP-resistant G3 cells in the same manner as the first efficacy study above. Treatments began 2 weeks post-inoculation and were administered twice weekly.

[5] = test system: CHOP-sensitive CRL2631 cells; assay: Prevention of the emergence of CHOP resistance; format: cell-based, human; details: one week CHOP+rifabutin, half (0.5×) and full (1×) doses of CHOP
Procedure: The ability of rifabutin to prevent the emergence of CHOP-resistance was determined by treating CHOP-sensitive CRL2631 cells with either CHOP alone or CHOP+rifabutin for one week. Following treatment, the cells were grown in the absence of CHOP, then their sensitivity to CHOP was assayed by retreatment with CHOP, followed by counting of viable cells. […] A 1×CHOP dose in this experiment corresponds to final concentrations of the following components: 0.83 μM 4-hydroxycyclophosphamide [4HC, a pre-activated form of cyclophosphamide], 0.057 μM doxorubicin, 0.01 μM vincristine, and 0.186 μM prednisone.

CRL2631 cells = assay: Modified Boyden chamber invasion assay, CRL2631 cells; format: cell-based, human; details: 10 μM rifabutin 24 hours; DMSO 39,356
Procedure: A modified Boyden chamber assay was used as an independent method to evaluate rifabutin's ability to suppress invasion/metastasis. […] Cell invasion was assessed with a Chemicon QCM Collagen Invasion Assay (Millipore). The assay is a 96-well plate assay wherein each well is equipped with a suspended insert. Inserts contain an 8-micron membrane coated with a thin layer of polymerized collagen. Invading cells migrate through the collagen layer and attach to the bottom of the membrane. Cells were detached from the membrane and lysed prior to detection via CyQuant dye. Fluorescence intensity is proportional to number of invading cells. […] In CRL2631 cells RLU decreases from 39,356 to 27,432 RLU in the presence of rifabutin (p<0.05).

Q: Which “Magnitude of potentiation in combination with doxorubicin” value (“Magnitude of potentiation” below) (lymphoma cell line G3; G3, lymphoma B cells) does the source give for `CO[C@H]1/C=C/O[C@@]2(C)Oc3c(C)c(O)c4c(c3C2=O)C2=NC3(CCN(CC(C)C)CC3)NC2=C(NC(=O)/C(C)=C\C=C\[C@H](C)[C@H](O)[C@@H](C)[C@@H](O)[C@@H](C)[C@H](OC(C)=O)[C@@H]1C)C4=O` [Rifabutin, rifabutin] here?
A: +++ (potentiation greater than 5 fold increase)

Q: And the IC50 (lymphoma cell line G3; analog alone, lymphoma cell line G3, read-out: IC50)?
A: > 64 µM

Q: What about the IC50 (lymphoma cell line G3; with 1 μM doxorubicin, lymphoma cell line G3, read-out: IC50 (μM) with doxorubicin (1 μM)) of the same compound?
A: 0.25 µM

Q: And the “Fold increase in potency over DOX alone” value (lymphoma cell line G3; lymphoma cell line G3)?
A: 9.4 fold

Q: What about the “cell growth in the absence of CHOP” value (lymphoma cell line G3; rifabutin alone, G3) of the same compound?
A: did not affect the growth

Q: What about the “sensitivity of cells to CHOP relative to a control drug” value ([1]; CHOP-sensitive cells as printed, FIG. 2B) of the same compound?
A: enhanced the sensitivity

Q: What about the “CHOP sensitivity of low-ROS cell population” value ([1]; low-ROS CRL2631 cells, 10 uM rifabutin) of the same compound?
A: sensitized to CHOP

Q: And the “cell growth in the absence of CHOP” value ([1]; rifabutin alone, CRL2631)?
A: did not affect the growth

Q: What about the “Magnitude of potentiation” value [2] of the same compound?
A: +++ (potentiation greater than 5 fold increase)

Q: And the “Magnitude of potentiation” value [3]?
A: + (potentiation between 1.2 to 2.0 fold increase)

Q: And the “overall tumor burden per mouse” value ([4]; first study, rifabutin 100 mg/kg by gavage with CHOP at maximum tolerated dose weekly for 3 weeks, versus CHOP only)?
A: much lower

Q: What about the “toxicity of the rifabutin dosage in the mice” value ([4]; mouse, in vivo) of the same compound?
A: little or not toxicity

Q: And the “injection sites that developed tumors” value ([4]; second study, treated before palpable tumors, CHOP+rifabutin group, 6 of 16 sites)?
A: 37.5%

Q: What about the tumor load ([4]; third study, reduced dosages of CHOP with 33 mg/kg rifabutin weekly, versus untreated mice) of the same compound?
A: significantly less

Q: What about the “emergence of CHOP-resistant cells” value [5] of the same compound?
A: significantly repress the emergence of CHOP-resistant cells

Q: What about the “relative fluorescence (invading cells)” value (CRL2631 cells) of the same compound?
A: 27,432 RLU
